# Source: ChEMBL document CHEMBL1149418, “Intermolecular interactions in the crystal structures of potential HIV-1 integrase inhibitors” (Bioorg Med Chem Lett, 2006)
# Target: Human immunodeficiency virus type 1 integrase (Human immunodeficiency virus 1, UniProt Q7ZJM1)
# Experiment: Antiviral activity against HIV1 integrase
# Sequence of Human immunodeficiency virus type 1 integrase (Q7ZJM1 whole entry): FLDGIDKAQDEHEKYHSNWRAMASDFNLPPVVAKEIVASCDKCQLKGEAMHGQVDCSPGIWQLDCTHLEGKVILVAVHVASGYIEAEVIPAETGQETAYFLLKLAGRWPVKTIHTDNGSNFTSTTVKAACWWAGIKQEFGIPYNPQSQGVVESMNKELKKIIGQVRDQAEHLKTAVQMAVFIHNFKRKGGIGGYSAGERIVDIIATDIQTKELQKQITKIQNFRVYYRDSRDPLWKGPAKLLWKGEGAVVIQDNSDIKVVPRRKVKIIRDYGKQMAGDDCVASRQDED
row,IC50 [µM],Compound
1,230,Oc1cccc2ccc(/C=C/c3cccc(Cl)c3)nc12
2,> 333,Cc1ccc2c(N=O)ccc(O)c2n1
3,230,O=C(O)c1ccc2ccc(/C=C/c3cccc(Cl)c3)nc2c1

row,Compound,IC50 [µM]
1,COC(Nc1cc(Cl)c([N+](=O)[O-])cc1Cl)c1ccc2cccc(O)c2n1 (centres undefined),230
